For assay [1], the system named is GALAP (Galium aparine, catchweed bedstraw). Description: Postemergence herbicidal activity of mixtures in cereal crops, greenhouse. In kind it is in vivo, Galium aparine L. On the procedure: (§1) Seeds of the desired test plant species were planted in Sun Gro MetroMix® 306 planting mixture, which typically has a pH of 6.0 to 6.8 and an organic matter content of about 30 percent, in plastic pots with a surface area of 103.2 square centimeters (cm^2). When required to ensure good germination and healthy plants, a fungicide treatment and/or other chemical or physical treatment was applied. The plants were grown for 7-36 days in a greenhouse with an approximate 14 hour photoperiod which was maintained at about 18° C. during the day and about 17° C. during the night. Nutrients and water were added on a regular basis and supplemental lighting was provided with overhead metal halide 1000-Watt lamps as necessary. The plants were employed for testing when they reached the second or third true leaf stage.
(§2) Treatments consisted of the benzyl ester of 4-amino-3-chloro-5-fluoro-6-(4-chloro-2-fluoro-3-methoxy-phenyl)pyridine-2-carboxylic acid (Compound A), formulated as an SC, a second cereal herbicide alone and then both in combination.
(§3) Other herbicidal components were applied on an active ingredient basis and included PSII-inhibiting herbicides.
(§4) Measured aliquots of benzyl ester of 4-amino-3-chloro-5-fluoro-6-(4-chloro-2-fluoro-3-methoxy-phenyl)pyridine-2-carboxylic acid (Compound A) were placed in 25 milliliter (mL) glass vials and diluted in a volume of 1.25% (v/v) Agri-Dex® crop oil concentrate to obtain stock solutions. Compound requirements are based upon a 12 mL application volume at a rate of 187 liters per hectare (L/ha). Spray solutions of the second cereal herbicide and experimental compound mixtures were prepared by adding the stock solutions to the appropriate amount of dilution solution to form 12 mL spray solution with active ingredients in two- and three-way combinations. Formulated compounds were applied to the plant material with an overhead Mandel track sprayer equipped with an 8002E nozzle calibrated to deliver 187 L/ha over an application area of 0.503 square meters (m^2) at a spray height of 18 inches (46 cm) above average plant canopy. Control plants were sprayed in the same manner with the solvent blank.
(§5) The treated plants and control plants were placed in a greenhouse as described above and watered by sub-irrigation to prevent wash-off of the test compounds. After 20-22 days, the condition of the test plants as compared with that of the control plants was determined visually and scored on a scale of 0 to 100 percent where 0 corresponds to no injury and 100 corresponds to complete kill.
(§6) Colby's equation was used to determine the herbicidal effects expected from the mixtures (Colby, S. R. 1967. Calculation of the synergistic and antagonistic response of herbicide combinations. Weeds 15:20-22).
(§7) The following equation was used to calculate the expected activity of mixtures containing two active ingredients, A and B: Expected=A+B−(A×B/100)

For assay [2], the system named is LAMPU (Lamium purpureum, purple deadnettle). The assay is described as above. In kind it is in vivo, Lamium purpureum L. How it is done: as §1, §2, §3, §4, §5, §6, §7
The subject of assay [3] is ABUTH (Abutilon theophrasti, velvetleaf). Description: Pre-emergence soil-applied mixtures, greenhouse. The assay is classed as in vivo, Abutilon theophrasti Medik. An excerpt:
(§8) Seeds or nutlets of the desired test plant species were planted in a soil matrix prepared by mixing a loam soil (32 percent silt, 23 percent clay, and 45 percent sand, with a pH of about 6.5 and an organic matter content of about 1.9 percent) and calcareous grit in an 80 to 20 ratio. The soil matrix was contained in plastic pots with a volume of 1 quart and a surface area of 83.6 square centimeters (cm^2).
(§9) Treatments consisted of the benzyl ester of 4-amino-3-chloro-5-fluoro-6-(4-chloro-2-fluoro-3-methoxy-phenyl)pyridine-2-carboxylic acid (compound A) formulated as an SC (suspension concentrate) and various herbicidal components alone and in combination. Forms of compound A were applied on an acid equivalent basis.
(§10) Other herbicidal components were applied on an acid equivalent or active ingredient basis and included the PSII-inhibiting herbicides, atrazine formulated as Atrazine® 90WDG, metribuzin formulated as Metribuzin 75DF, simazine formulated as Princep Caliber 90, tebuthiuron formulated as Spike 80DF, cyanazine (technical grade material), hexazinone (technical grade material), linuron (technical grade material), terbuthylazine (technical grade material), and diuron formulated as Diuron 4L.
(§11) Treatment requirements were calculated based upon the rates being tested, the concentration of active ingredient or acid equivalent in the formulation, and a 12 mL application volume at a rate of 187 L/ha.
(§12) For treatments comprised of formulated compounds, measured amounts of compounds were placed individually in 25 mL glass vials and diluted in a volume of 1.25% (v/v) Agri-Dex® crop oil concentrate (COC) to obtain 12× stock solutions. […] Application solutions were prepared by adding an appropriate amount of each stock solution (e.g., 1 mL) and diluted to the appropriate final concentrations with the addition of 10 mL of an aqueous mixture of 1.25% (v/v) COC so that the final spray solutions contained 1.25% (v/v) COC.
For treatments comprised of technical compounds, weighed amounts can be placed individually in 25 mL glass vials and dissolved in a volume of 97:3 (v/v) acetone/DMSO to obtain 12× stock solutions. […] Application solutions can be prepared by adding an appropriate amount of each stock solution (e.g., 1 mL) and diluted to the appropriate final concentrations with the addition of 10 mL of an aqueous mixture of 1.5% (v/v) COC so that the final spray solutions contain 1.25% (v/v) COC. When technical materials are used, the concentrated stock solutions can be added to the spray solutions so that the final acetone and DMSO concentrations of the application solutions are 16.2% and 0.5%, respectively.
For treatments comprised of formulated and technical compounds, weighed amounts of the technical materials can be placed individually in 25 mL glass vials and dissolved in a volume of 97:3 (v/v) acetone/DMSO to obtain 12× stock solutions, and measured amounts of the formulated compounds can be placed individually in 25 mL glass vials and diluted in a volume of 1.5% (v/v) COC or water to obtain 12× stock solutions. […] Application solutions can be prepared by adding an appropriate amount of each stock solution (e.g., 1 mL) and diluted to the appropriate final concentrations with the addition of an appropriate amount of an aqueous mixture of 1.5% (v/v) COC so that the final spray solutions contain 1.25% (v/v) COC. […]

The subject of assay [4] is ECHCG (Echinochloa crus-galli, barnyardgrass). Kind of assay: Pre-emergence soil-applied mixtures, greenhouse. The assay is classed as in vivo, Echinochloa crus-galli (L.) P. Beauv.
Description: as §8, §9, §10, §11, §12
For treatments comprised of technical compounds, weighed amounts can be placed individually in 25 mL glass vials and dissolved in a volume of 97:3 (v/v) acetone/DMSO to obtain 12× stock solutions. […]
For treatments comprised of formulated and technical compounds, weighed amounts of the technical materials can be placed individually in 25 mL glass vials and dissolved in a volume of 97:3 (v/v) acetone/DMSO to obtain 12× stock solutions, and measured amounts of the formulated compounds can be placed individually in 25 mL glass vials and diluted in a volume of 1.5% (v/v) COC or water to obtain 12× stock solutions. […]

[5] abbreviates: Compound A Benzyl Ester 5 g ai/ha.
The mark [6] stands for this setting: Compound A Benzyl Ester 10 g ai/ha.
The mark [7] stands for this setting: Compound A Benzyl Ester 16 g ae/ha.
Setting [8] is: Compound A Benzyl Ester 32 g ae/ha.

SMILES strings stand for the structures.

As for `COc1c(Cl)ccc(-c2nc(C(=O)OCc3ccccc3)c(Cl)c(N)c2F)c1F` [Compound A Benzyl Ester, benzyl ester of 4-amino-3-chloro-5-fluoro-6-(4-chloro-2-fluoro-3-methoxy-phenyl)pyridine-2-carboxylic acid], the “Visual Weed Control (%) - 21 DAA GALAP Obs” value amounted to 66% in assay [1] (setting [5]) and 77% in assay [1] (setting [6]). Further, the “Visual Weed Control (%)-21 DAA LAMPU Obs” value is on record as 80% in assay [2] (Compound A Benzyl Ester 2.5 g ai/ha); 80% in assay [2] (Compound A Benzyl Ester 2.5 g ai/ha, Table 22); 86% in assay [2] (setting [5]); 86% in assay [2] (Compound A Benzyl Ester 5 g ai/ha, Table 22); 94% in assay [2] (setting [6]); 94% in assay [2] (Compound A Benzyl Ester 10 g ai/ha, Table 22). For the same compound, the “Visual Weed Control (%)-29 DAA ABUTH Obs” value came out at 65% in assay [3] (setting [7]) and 93% in assay [3] (setting [8]). Moreover, the “Visual Weed Control (%)-28 DAA ECHCG Obs” value in assay [4] (setting [7]) and in assay [4] (setting [8]) was 0% each time.

Values taken from patent publication US8912121B2, “Herbicidal compositions comprising 4-amino-3-chloro-5-fluoro-6-(4-chloro-2-fluoro-3-methoxyphenyl)pyridine-2-carboxylic acid or a derivative thereof and certain PS II inhibitors” (Dow Agrosciences LLC, priority 2012, dated 2014).
